This is an account of results in patent publication US20160051629A1, “INHIBITION OF RIP KINASES FOR TREATING LYSOSOMAL STORAGE DISEASES” (YEDA RESEARCH AND DEVELOPMENT CO. LTD., priority 2013, published 2016).

The conditions of data set [1]: in vivo; cited from earlier work.
Another data set relates to Gaucher disease mice. The data set is described as follows: Anakinra (IL-1Ra) treatment of CBE-induced Gaucher disease mice. The data set is classed as in vivo. On the procedure:
Mice were injected i.p. with 50 mg/kg/day CBE or CBE+IL-1Ra (Anakinra, 75 mg/kg) from 8 days of age. Body weight (FIG. 7A) and life span (FIG. 7B) of mice treated with either CBE only or CBE+Anakinara (n=3).
Gba^flox/flox; mice were crossed with Gba^flox/+; Nestin-Cre mice to generate Gba^flox/flox; Nestin-Cre mice (Enquist, I. B. et al. 2007. Proc. Natl. Acad. Sci. U.S.A. 104, 17483-17488) and Gba^flox/+; Nestin-Cre mice, which served as healthy controls. Genotyping was performed by PCR using genomic DNA extracted from mouse tails or embryonic brains (Farfel-Becker, T. et al. 2009. Hum. Mol. Genet. 18, 1482-1488). Both male and female mice were used. The colony was maintained in the experimental animal center of the Weizmann Institute of Science. All animal experiments were approved by the Weizmann Institute Institutional Animal Care and Use Committee. Mice deficient in galactocerebrosidase (the Twitcher mouse) were used as a model of Krabbe disease (Suzuki. K. & Taniike, M. 1995. Res. Tech. 32, 204-214), mice deficient in the β-subunit of β-hexosaminidase A and B were used as a model of Sandhoff disease (Sango, K. et al. 1995. Nat. Genet. 11, 170-176). Brains from a mouse model of the GM1 gangliosidosis (Hahn, C. N. et al. 1997. Hum. Mol. Genet. 6, 205-211), defective in lysosomal β-galactosidase, and from Niemann-Pick disease Type C1 mice (Pentchev, P. G. et al. 1984. J. Biol. Chem. 259, 5784-5791), defective in the NPC1 gene, were also used. Mice deficient in TNFα (strain B6; 129S6-Tnftm1Gkl/J, The Jackson Laboratory) were provided by Dr. David Wallach (Weizmann Institute, Israel). C57BL/6J (The Jackson Laboratory) mice were injected daily intraperitoneally with 50 mg CBE/kg body weight/day (Kanfer, J. N. et al. 1975. Biochem. Biophys. Res. Commun. 67, 85-90) or with phosphate-buffered saline from 8 days of age.

Take `CN1C(=O)C(Cc2c[nH]c3ccccc23)NC1=S` (centres unmarked) [Nec-1, necrostatin-1]: in data set [1], the “crossing of the blood-brain barrier” value is recorded as “crosses the blood-brain barrier” and the half-life is recorded as around 1 h.

For the compound “Anakinra: a recombinant, non-glycosylated version of human IL-1 receptor antagonist, sold under the trade name KINERET (Amgen)”, in the data set with Gaucher disease mice (50 mg/kg/day CBE i.p. + IL-1Ra (Anakinra, 75 mg/kg) from 8 days of age, FIG. 7), the “clinical course of Gaucher disease mice” value is recorded as “improves the clinical course”. Further, in the data set with Gaucher disease mice (CBE-treated mice, 50 mg/kg/day CBE i.p. + Anakinra 75 mg/kg from 8 days of age, vs CBE only, n=3, FIG. 7A), the “gain weight (body weight)” value is “improves gain weight”. The life-span entry in the data set on Gaucher disease mice (CBE-treated mice, 50 mg/kg/day CBE i.p. + Anakinra 75 mg/kg from 8 days of age, vs CBE only, n=3, FIG. 7B) was “improves”.

By half-life is commonly meant the time in which the quantity being followed falls by half.
